Read-outs that look alike come from different tables or passages of the source.

In patent US20090054428A1, “NOVEL PYRIMIDINE DERIVATIVES 965” (ASTRAZENECA AB, priority 2007, published 2009) one finds IC50 data, which are given here for 15 molecules.

Experiment [1] addresses T1, recombinant EphB4 (Homo sapiens, UniProt P54760).
T1 sequence (P54760 563-987): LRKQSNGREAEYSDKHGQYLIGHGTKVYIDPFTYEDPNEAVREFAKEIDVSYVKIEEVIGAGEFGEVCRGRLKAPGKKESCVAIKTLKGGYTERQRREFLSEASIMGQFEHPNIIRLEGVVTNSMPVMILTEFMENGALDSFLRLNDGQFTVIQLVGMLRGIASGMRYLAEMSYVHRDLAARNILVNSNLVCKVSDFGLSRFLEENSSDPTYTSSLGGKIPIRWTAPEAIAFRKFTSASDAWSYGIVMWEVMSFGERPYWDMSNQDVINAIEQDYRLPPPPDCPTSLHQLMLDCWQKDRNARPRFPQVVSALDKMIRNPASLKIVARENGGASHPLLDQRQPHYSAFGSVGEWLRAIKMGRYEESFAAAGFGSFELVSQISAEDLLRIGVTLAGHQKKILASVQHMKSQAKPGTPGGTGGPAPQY
Put plainly: biochemical.
Source text: (§1) This assay detects inhibitors of EphB4-mediated phosphorylation of a polypeptide substrate using Alphascreen™ luminescence detection technology. […] The reaction was stopped by addition of EDTA, together with streptavidin-coated donor beads which bind the biotin-substrate containing any phosphorylated tyrosine residues. Anti-phosphotyrosine antibodies present on acceptor beads bind to phosphorylated substrate, thus bringing the donor & acceptor beads into close proximity. Subsequent excitation of the donor beads at 680 nm generated singlet oxygen species that interact with a chemiluminescer on the acceptor beads, leading to light emission at 520-620 nm. The signal intensity is directly proportional to the level of substrate phosphorylation and thus inhibition is measured by a decrease in signal.
(§2) To ensure that each well contained a total of 120 nl DMSO the wells were all backfilled as required. […] The test range of compounds was 100× the required final concentration.
(§3) Assay plates were then incubated at room temperature for 1 hour.
(§4) For assays using compounds prepared via acoustic dispensing, the assay mix was adjusted such that the final assay volume of 12 ul contained the same concentration of reagent as 10 ul of assay mix used when aqueous compounds were tested.
(§5) The plates were sealed under natural lighting conditions, wrapped in aluminium foil and incubated in the dark for a further 20 hours.
(§6) The resulting assay signal was determined on the Perkin Elmer EnVision plate reader. The minimum value was subtracted from all values, and the signal plotted against compound concentration to generate IC50 data. The method used to generate the compound dilutions was recorded with the IC50 value in the database.

In the next experiment the target is T2, EphB4 (Homo sapiens, UniProt P54760).
T2 construct: to generate full-length EphB4 containing a Myc-His tag at the C-terminus; expressed in transfected cells
T2 sequence (P54760 16-987): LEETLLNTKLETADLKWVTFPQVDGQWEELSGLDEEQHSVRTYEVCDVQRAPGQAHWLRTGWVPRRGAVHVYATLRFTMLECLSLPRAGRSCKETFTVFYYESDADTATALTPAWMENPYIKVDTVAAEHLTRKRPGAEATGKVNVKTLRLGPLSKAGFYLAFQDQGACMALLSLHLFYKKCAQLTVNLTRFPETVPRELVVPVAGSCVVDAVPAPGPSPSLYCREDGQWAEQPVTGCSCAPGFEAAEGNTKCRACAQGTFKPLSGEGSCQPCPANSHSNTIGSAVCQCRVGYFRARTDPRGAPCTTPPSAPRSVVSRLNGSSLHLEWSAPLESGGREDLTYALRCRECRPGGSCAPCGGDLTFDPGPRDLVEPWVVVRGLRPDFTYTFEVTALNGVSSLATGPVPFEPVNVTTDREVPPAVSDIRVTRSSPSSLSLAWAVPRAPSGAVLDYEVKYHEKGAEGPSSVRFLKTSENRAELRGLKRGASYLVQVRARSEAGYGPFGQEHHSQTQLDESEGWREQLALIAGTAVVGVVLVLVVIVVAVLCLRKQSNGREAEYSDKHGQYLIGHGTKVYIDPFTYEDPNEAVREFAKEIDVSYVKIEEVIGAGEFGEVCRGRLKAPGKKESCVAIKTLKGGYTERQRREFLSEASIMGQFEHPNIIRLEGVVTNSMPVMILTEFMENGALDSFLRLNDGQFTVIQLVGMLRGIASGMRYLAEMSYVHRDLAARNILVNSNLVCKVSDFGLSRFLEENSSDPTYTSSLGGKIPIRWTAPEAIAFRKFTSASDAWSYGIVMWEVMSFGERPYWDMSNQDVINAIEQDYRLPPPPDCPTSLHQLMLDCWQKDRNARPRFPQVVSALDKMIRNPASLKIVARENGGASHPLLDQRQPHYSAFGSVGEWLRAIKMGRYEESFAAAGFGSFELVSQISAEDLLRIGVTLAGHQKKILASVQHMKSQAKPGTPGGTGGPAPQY
In words: In vitro EphB4 cell assay (EphB4 phosphorylation ELISA in EphB4-CHO cells). Format: cell-based. The method, then:
The assay identifies inhibitors of cellular EphB4 by measuring a decrease in phosphorylation of EphB4 following treatment of cells with compound. The endpoint assay used a sandwich ELISA to detect EphB4 phosphorylation status. Briefly, Myc-tagged EphB4 from treated cell lysate was captured on the ELISA plate via an anti-c-Myc antibody. The phosphorylation status of captured EphB4 was then measured using a generic phosphotyrosine antibody conjugated to HRP via a colourimetric output catalysed by HRP, with level of EphB4 phosphorylation directly proportional to the colour intensity. Absorbance was measured spectrophotometrically at 450 nm.
Full length human EphB4 (Swiss-Prot Acc. No. P54760) was cloned using standard techniques from cDNA prepared from HUVEC using RT-PCR. The cDNA fragment was then sub-cloned into a pcDNA3.1 expression vector containing a Myc-His epitope tag to generate full-length EphB4 containing a Myc-His tag at the C-terminus (Invitrogen Ltd. Paisley, UK). […] CHO-K1 cells were engineered to stably express the EphB4-Myc-His construct using standard stable transfection techniques, to generate cells hereafter termed EphB4-CHO. […]
Plates were washed twice with PBS/0.05% Tween-20 and incubated with 100 μl/well cell lysate overnight at 4° C. […] The absorbances were determined at 450 nm using the Tecan SpectraFluor Plus. […]

Experiment [2] addresses T1, recombinant EphB4. To be noted: read-out: EphB4 enzyme assay Mean IC50 value; Method of compound preparation: Genesis (aqueous compound preparation); * = tested once only.
Source text: as §1, §2, §3, §4, §5, §6
Setting [3] is: EphB4 enzyme assay Mean IC50 value, Method of compound preparation: Echo (acoustic dispensing), * = tested once only.
[4] abbreviates: EphB4 enzyme assay Mean IC50 value, Method of compound preparation: Genesis (aqueous compound preparation), * = tested once only.

The term IC50 denotes the point on the concentration scale where inhibition reaches its midpoint. `Cc1ccc(CO)nc1N(C)c1ccnc(Nc2cc(N3CCOCC3)cc(N3CCOCC3)c2)n1` [Example 10, (6-((2-(3,5-dimorpholinophenylamino)pyrimidin-4-yl)(methyl)amino)-5-methylpyridin-2-yl)methanol]: on recombinant EphB4 [1] (setting [3]), the IC50 came out at 141 nM.
Turning to `COc1cnc(Cl)c(N(C)c2ccnc(Nc3cc(N4CCOCC4)cc(N4CCOCC4)c3)n2)c1` [Example 9, N′-(2-chloro-5-methoxy-pyridin-3-yl)-N-(3,5-dimorpholin-4-ylphenyl)-N′-methyl-pyrimidine-2,4-diamine], the IC50 at recombinant EphB4 [1] (setting [3]) worked out at 10.7 nM.
Consider `Cc1cnc(C)c(N(C)c2ccnc(Nc3cc(N4CCOCC4)cc(N4CCOCC4)c3)n2)c1` [Example 7c, N′-(2,5-dimethylpyridin-3-yl)-N-(3,5-dimorpholin-4-ylphenyl)-N′-methyl-pyrimidine-2,4-diamine], for which the IC50 at recombinant EphB4 [1] (setting [4]) is 384 nM.
Consider `COc1cnc(C)c(N(C)c2ccnc(Nc3cc(N4CCOCC4)cc(N4CCOCC4)c3)n2)c1` [Example 7d, N-(3,5-dimorpholin-4-ylphenyl)-N′-(5-methoxy-2-methyl-pyridin-3-yl)-N′-methyl-pyrimidine-2,4-diamine], for which the IC50 on recombinant EphB4 [1] (setting [3]) turned out to be 4.37 nM.
On to `Cc1cc(N(C)c2ccnc(Nc3cc(N4CCOCC4)cc(N4CCOCC4)c3)n2)cnc1Cl` [Example 8b, N′-(6-chloro-5-methyl-pyridin-3-yl)-N-(3,5-dimorpholin-4-ylphenyl)-N′-methyl-pyrimidine-2,4-diamine], for which the IC50 at recombinant EphB4 [1] (setting [4]) came out at 166 nM.
In the case of `CN(c1cncc(Cl)c1)c1ccnc(Nc2cc(N3CCOCC3)cc(N3CCOCC3)c2)n1` [Example 3, N′-(5-chloropyridin-3-yl)-N-(3,5-dimorpholin-4-ylphenyl)-N′-methyl-pyrimidine-2,4-diamine], the IC50 is 11.6 nM on recombinant EphB4 [1] (setting [3]) and 49 nM on recombinant EphB4 [1] (setting [4]).
`Cc1ncc(CO)cc1N(C)c1ccnc(Nc2cc(N3CCOCC3)cc(N3CCOCC3)c2)n1` [Example 13, [5-[[2-[[3,5-di(morpholin-4-yl)phenyl]amino]pyrimidin-4-yl]-methylamino]-6-methylpyridin-3-yl]methanol]: at recombinant EphB4 [1] (setting [3]), the IC50 amounted to 66.9 nM.
As to `Cc1ccc(N(C)c2ccnc(Nc3cc(N4CCOCC4)cc(N4CCOCC4)c3)n2)nc1` [Example 12, N-[3,5-di(morpholin-4-yl)phenyl]-N′-methyl-N′-(5-methylpyridin-2-yl)pyrimidine-2,4-diamine], the IC50 at recombinant EphB4 [1] (setting [3]) came out at 158 nM; on recombinant EphB4 [1] (setting [4]), 250 nM.
On to `CN(c1ccc(Cl)nc1)c1ccnc(Nc2cc(N3CCOCC3)cc(N3CCOCC3)c2)n1` [Example 6, N4-(6-chloropyridin-3-yl)-N2-(3,5-dimorpholinophenyl)-N4-methylpyrimidine-2,4-diamine], for which the 50% inhibitory concentration (IC50) at recombinant EphB4 [1] (setting [4]) was found to be 201 nM.
Still for that read-out and setting: next, `CN(c1cccc(Cl)n1)c1ccnc(Nc2cc(N3CCOCC3)cc(N3CCOCC3)c2)n1` [Example 4, N′-(6-chloropyridin-2-yl)-N-(3,5-dimorpholin-4-ylphenyl)-N′-methyl-pyrimidine-2,4-diamine]: 611 nM.
As for `CN(c1cc(Cl)ccn1)c1ccnc(Nc2cc(N3CCOCC3)cc(N3CCOCC3)c2)n1` [Example 2a, N′-(4-chloropyridin-2-yl)-N-(3,5-dimorpholin-4-ylphenyl)-N′-methyl-pyrimidine-2,4-diamine], the IC50 is 197 nM on EphB4 and 405 nM at recombinant EphB4 [1] (IC50 in assay A, method of compound preparation not stated).
On to `Cc1ccc(N(C)c2ccnc(Nc3cc(N4CCOCC4)cc(N4CCOCC4)c3)n2)cn1` [Example 7a, N-(3,5-dimorpholin-4-ylphenyl)-N′-methyl-N′-(6-methylpyridin-yl)pyrimidine-2,4-diamine], for which the IC50 on recombinant EphB4 [1] (setting [4]) stood at 116 nM.
On to `Cc1cccc(N(C)c2ccnc(Nc3cc(N4CCOCC4)cc(N4CCOCC4)c3)n2)n1` [Example 11, N-[3,5-di(morpholin-4-yl)phenyl]-N′-methyl-N′-(6-methylpyridin-2-yl)pyrimidine-2,4-diamine], for which the IC50 was 207 nM on recombinant EphB4 [1] (setting [3]) and above 14400 nM at recombinant EphB4 [1] (setting [4]).
As to `COc1cc(N(C)c2ccnc(Nc3cc(N4CCOCC4)cc(N4CCOCC4)c3)n2)cnc1Cl` [Example 8a, N′-(6-chloro-5-methoxy-pyridin-3-yl)-N-(3,5-dimorpholin-4-ylphenyl)-N′-methyl-pyrimidine-2,4-diamine], on recombinant EphB4 [1] (setting [4]), the IC50 came to 106 nM.
As to “N′-(4-chloropyridin-4-yl)-N-(3,5-dimorpholin-4-ylphenyl)-N′-methyl-pyrimidine-2,4-diamine [Example 2b]”, the half-inhibitory concentration (IC50) on recombinant EphB4 [2] amounted to 207 nM.
